Here are results for 15 compounds from patent publication US10532977B2, “Small molecule inhibitors of protein tyrosine phosphatases and uses thereof” (Indiana University Research and Technology Corporation, priority 2015, dated 2020).

One assay has as its system Mtb-infected macrophages. Description: Macrophage assay, growth of M. tuberculosis in IFN-γ activated J774 macrophages. Type of assay: cell-based, Mycobacterium tuberculosis. To be noted: J774A.1 macrophages.
In a further assay the test system is M. tuberculosis H37Rv. In words: Microplate Alamar Blue assay (MABA) MIC, H37Rv. The class given is cell-based, Mycobacterium tuberculosis. In general terms: Alamar Blue is a resazurin reagent that responds to reducing activity.
For the next assay, the target named is T1, PTPH1 (Homo sapiens, UniProt P26045).
T1 sequence (P26045 1-913): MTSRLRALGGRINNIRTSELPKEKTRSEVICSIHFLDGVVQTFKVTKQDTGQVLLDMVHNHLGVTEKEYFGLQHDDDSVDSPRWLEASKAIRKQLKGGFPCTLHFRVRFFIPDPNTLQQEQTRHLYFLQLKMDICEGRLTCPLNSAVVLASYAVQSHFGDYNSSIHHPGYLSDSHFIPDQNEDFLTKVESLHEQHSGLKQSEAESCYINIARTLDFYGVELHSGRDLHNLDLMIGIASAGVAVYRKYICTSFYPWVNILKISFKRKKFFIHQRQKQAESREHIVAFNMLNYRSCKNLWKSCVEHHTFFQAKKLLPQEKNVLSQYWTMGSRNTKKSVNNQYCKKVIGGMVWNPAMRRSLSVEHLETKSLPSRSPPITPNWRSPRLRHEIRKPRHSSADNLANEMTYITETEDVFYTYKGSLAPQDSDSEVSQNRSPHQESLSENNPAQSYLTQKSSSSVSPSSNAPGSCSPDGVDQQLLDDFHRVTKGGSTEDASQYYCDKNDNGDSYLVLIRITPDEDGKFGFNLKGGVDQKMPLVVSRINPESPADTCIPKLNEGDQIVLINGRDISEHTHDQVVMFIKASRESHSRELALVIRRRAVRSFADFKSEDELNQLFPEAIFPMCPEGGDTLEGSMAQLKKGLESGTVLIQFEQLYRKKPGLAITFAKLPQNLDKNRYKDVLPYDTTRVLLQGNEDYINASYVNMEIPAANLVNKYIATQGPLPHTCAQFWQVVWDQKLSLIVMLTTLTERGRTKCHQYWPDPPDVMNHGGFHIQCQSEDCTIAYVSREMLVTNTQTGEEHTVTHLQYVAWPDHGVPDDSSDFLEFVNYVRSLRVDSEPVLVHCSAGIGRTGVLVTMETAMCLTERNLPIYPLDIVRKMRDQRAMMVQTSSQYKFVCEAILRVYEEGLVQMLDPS
Description: PTPH1 inhibition, pNPP substrate. The class given is biochemical. To be noted: pH 7.

The next assay concerns the target mPTPA (Mycobacterium tuberculosis, UniProt P9WIA1). The class given is biochemical.
The target of another assay is T2, Ssu72 (Homo sapiens, UniProt Q9NP77).
T2 construct: made in house
Description: Ssu72 inhibition, pNPP substrate. Type of assay: biochemical. To be noted: pH 7.

The target of another assay is PEST (Homo sapiens, UniProt Q05209). In words: PEST inhibition, pNPP substrate. The class given is biochemical. To be noted: pH 7.
Assay [1] deals with T3, SHP2 (Homo sapiens, UniProt Q06124).
T3 sequence (Q06124 224-528): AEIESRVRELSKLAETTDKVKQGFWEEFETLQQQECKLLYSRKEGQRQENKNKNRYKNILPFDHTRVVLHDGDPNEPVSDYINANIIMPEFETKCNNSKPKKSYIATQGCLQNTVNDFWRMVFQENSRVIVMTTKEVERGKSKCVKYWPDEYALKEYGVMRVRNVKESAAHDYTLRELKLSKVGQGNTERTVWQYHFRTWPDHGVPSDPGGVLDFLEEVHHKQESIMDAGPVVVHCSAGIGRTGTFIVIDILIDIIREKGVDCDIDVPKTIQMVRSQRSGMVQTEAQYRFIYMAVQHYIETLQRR
In words: SHP2 inhibition, pNPP substrate. The class given is biochemical.

The next assay has as its target PTP1B (Homo sapiens, UniProt P18031). In words: PTP1B inhibition, pNPP substrate. The class given is biochemical. To be noted: pNPP at Km, pH 7.0, 25° C.
The target in a further assay is HePTP (Homo sapiens, UniProt P35236). Description: HePTP inhibition, pNPP substrate. The class given is biochemical. To be noted: pNPP at Km, pH 7.0, 25° C.
For another assay, the target named is VHR (Homo sapiens, UniProt P51452). In words: VHR inhibition, pNPP substrate. The class given is biochemical. To be noted: pNPP at Km, pH 7.0, 25° C.
For another assay, the target named is TcPTP (Homo sapiens, UniProt P17706). In words: TcPTP inhibition, pNPP substrate. The class given is biochemical. To be noted: pH 7.
In the next assay the target is FAP1 (Homo sapiens, UniProt Q12923). In words: FAP1 inhibition, pNPP substrate. Type of assay: biochemical. To be noted: pH 7.
The target in another assay is LYP (Homo sapiens, UniProt Q9Y2R2). In words: LYP inhibition, pNPP substrate. To be noted: pNPP at Km, pH 7.0, 25° C. Type of assay: biochemical.
For another assay, the target named is T4, Laforin (Homo sapiens, UniProt O95278).
T4 sequence (O95278 1-331): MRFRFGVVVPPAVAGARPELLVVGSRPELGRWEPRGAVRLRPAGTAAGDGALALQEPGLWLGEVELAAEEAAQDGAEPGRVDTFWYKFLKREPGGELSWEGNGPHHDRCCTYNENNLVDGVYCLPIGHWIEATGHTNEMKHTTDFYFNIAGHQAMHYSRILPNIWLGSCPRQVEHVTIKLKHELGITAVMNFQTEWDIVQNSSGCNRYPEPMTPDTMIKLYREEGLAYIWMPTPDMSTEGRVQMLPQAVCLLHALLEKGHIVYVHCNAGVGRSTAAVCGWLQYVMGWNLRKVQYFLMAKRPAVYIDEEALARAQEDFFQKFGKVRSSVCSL
Description: Laforin inhibition, pNPP substrate. The class given is biochemical.

Assay [2] has as its system EGF-mediated ERK1/2 phosphorylation. Description: EGF-mediated ERK1/2 phosphorylation, immunoblot, H1975 cells. The class given is cell-based, human. To be noted: compound 7 at 40 μM. The method, then: Cell proliferation and immunoblot analysis. Human non-small cell lung carcinoma cell line H1975 was cultured at 37° C. and 5% CO2 in RPMI-1640 (Corning) supplemented with 10% fetal bovine serum (HyClone). Human breast cancer cell line MDA-MB-231 was cultured in DMEM supplemented with 10% fetal bovine serum. For cell proliferation assay, 2˜3×10^3 cells were seeded in each well of 96-well plates. After treating cells with compounds for 2 days, cells were incubated with 50 µg/ml MTT (3-(4,5-Dimethylthiazol-2-yl)-2,5-diphenyltetrazolium bromide) for ˜3-4 hours. Then, the culture medium was removed, DMSO was added to dissolve the formazan crystals. Wells containing only media were used for background correction. The optical density was measured spectrophotometrically at 540 nm. For signaling analysis, cells were serum-starved overnight followed by treatment with vehicle or compounds for 3 hours, and then either left un-stimulated or stimulated with 5 μg/ml EGF or 10 nM PMA (Sigma) for indicated time. Cells were lysed and the lysates were electrophoresed on a 10% polyacrylamide gel, and then transferred to a nitrocellulose membrane, and probed with anti-phospho-ERK1/2 and anti-ERK1/2 (Cell Signaling) antibodies followed by incubation with horseradish peroxidase-conjugated secondary antibodies. […]
On the technique in general: Immunoblotting shows a protein as a band on a membrane.

The target of the next assay is mPTPB (Mycobacterium tuberculosis, UniProt I6WXK4). Description: biochemical.
A further assay has as its system LMWPTP. Description: Insulin signaling in HepG2 cells. Type of assay: cell-based, human. To be noted: pretreated 1 hour, 5 nM insulin 5 minutes. The method, then:
To assess the effects of L335N15 in insulin signaling pathway, HepG2 cells were pretreated with L335N15 for 1 hour and were subsequently stimulated with 5 nM insulin for 5 minutes. […] Consistent with IR activation, downstream Akt phosphorylation (Ser473) was increased. […] Accordingly, LMWPTP inhibitors such as L335N15 described herein can be used to develop agents for the treatment of type 2 diabetes and insulin resistance.

The target of assay [3] is SHP2 (Homo sapiens, UniProt Q06124). In words: Covalent adduct formation with SHP2, QTOF ESI-MS / LC-MS. To be noted: pH 7, cefsulodin 3 hours, PVS 10 minutes. The method, then: Characterization of cefsulodin-mediated SHP2 inhibition by Q-TOF ESI-MS, LC-MS, and HPLC. Agilent 6520 Accurate-Mass was used for the Q-TOF ESI-MS studies. Water and acetonitrile (both containing 0.1% formic acid) were used as eluent (80% water, flow 50 μL/min, run time 5 minutes). ESI positive mode was used with mass range from 300 to 1700, the gas temperature was 325° C., and vaporizer temperature was: […] The sample was adjusted to have a concentration at 0.1 mg/mL, the injection volume of each sample was 1 μL. Mass hunter software was used for protein deconvolution data analysis to calculate the molecular weight of the protein.
Agilent Technologies 6130 quadrupole LC-MS instrument was used for the LC-MS studies. A C18 reserved phase column (phenomenex, 50×4.6 mm) was used as stationary phase, water and methanol (both containing 0.1% formic acid) were used as mobile phase (gradient: 0-100% methanol, flow 0 8 ml/min, run time 15 minutes), and UV absorbance at the fixed wavelength of 254 nm and positive and negative ESI-MS data were recorded. The sample was adjusted to have a concentration at 0.1 mg/mL, and the injection volume of each sample was 0.2 μL. The retention time and corresponding ESI-MS data were used as identity of molecules.

In general, IC50 refers to the concentration at which inhibition is half-maximal. A high value points to lower potency.

Entries after “also recorded” stand apart in the source; their conditions may differ.

mPTPB, sequence (I6WXK4 whole entry): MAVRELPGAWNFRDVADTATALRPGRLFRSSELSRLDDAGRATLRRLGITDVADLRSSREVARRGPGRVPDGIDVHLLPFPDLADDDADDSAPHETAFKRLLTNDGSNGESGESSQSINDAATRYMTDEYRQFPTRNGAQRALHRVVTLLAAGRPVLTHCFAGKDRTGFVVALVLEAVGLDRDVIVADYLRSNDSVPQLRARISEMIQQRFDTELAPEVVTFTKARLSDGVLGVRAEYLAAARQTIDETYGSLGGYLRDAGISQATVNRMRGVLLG
TcPTP, sequence (P17706 whole entry): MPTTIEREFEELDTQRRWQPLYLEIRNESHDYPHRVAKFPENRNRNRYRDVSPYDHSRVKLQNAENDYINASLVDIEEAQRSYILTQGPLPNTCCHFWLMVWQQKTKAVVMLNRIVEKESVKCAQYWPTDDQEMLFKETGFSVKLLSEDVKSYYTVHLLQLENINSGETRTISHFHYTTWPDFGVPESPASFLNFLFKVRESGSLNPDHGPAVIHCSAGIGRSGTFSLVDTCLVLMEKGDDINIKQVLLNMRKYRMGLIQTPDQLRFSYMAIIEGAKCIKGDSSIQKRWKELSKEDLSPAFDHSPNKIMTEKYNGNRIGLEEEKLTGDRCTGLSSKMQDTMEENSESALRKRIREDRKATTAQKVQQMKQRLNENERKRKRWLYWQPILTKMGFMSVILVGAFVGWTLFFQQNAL
PTP1B, sequence (P18031 whole entry): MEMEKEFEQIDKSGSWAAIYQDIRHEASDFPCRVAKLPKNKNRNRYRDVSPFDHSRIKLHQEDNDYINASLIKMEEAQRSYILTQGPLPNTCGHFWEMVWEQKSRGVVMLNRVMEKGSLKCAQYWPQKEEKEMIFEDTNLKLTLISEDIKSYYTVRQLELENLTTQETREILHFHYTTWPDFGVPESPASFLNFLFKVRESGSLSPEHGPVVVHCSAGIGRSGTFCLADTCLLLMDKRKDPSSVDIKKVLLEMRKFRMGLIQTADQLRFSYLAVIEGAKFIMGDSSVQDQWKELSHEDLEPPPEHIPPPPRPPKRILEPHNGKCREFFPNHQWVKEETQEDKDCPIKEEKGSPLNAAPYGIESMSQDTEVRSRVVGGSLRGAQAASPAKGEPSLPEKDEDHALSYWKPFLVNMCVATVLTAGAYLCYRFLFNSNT
FAP1, sequence (Q12923 whole entry): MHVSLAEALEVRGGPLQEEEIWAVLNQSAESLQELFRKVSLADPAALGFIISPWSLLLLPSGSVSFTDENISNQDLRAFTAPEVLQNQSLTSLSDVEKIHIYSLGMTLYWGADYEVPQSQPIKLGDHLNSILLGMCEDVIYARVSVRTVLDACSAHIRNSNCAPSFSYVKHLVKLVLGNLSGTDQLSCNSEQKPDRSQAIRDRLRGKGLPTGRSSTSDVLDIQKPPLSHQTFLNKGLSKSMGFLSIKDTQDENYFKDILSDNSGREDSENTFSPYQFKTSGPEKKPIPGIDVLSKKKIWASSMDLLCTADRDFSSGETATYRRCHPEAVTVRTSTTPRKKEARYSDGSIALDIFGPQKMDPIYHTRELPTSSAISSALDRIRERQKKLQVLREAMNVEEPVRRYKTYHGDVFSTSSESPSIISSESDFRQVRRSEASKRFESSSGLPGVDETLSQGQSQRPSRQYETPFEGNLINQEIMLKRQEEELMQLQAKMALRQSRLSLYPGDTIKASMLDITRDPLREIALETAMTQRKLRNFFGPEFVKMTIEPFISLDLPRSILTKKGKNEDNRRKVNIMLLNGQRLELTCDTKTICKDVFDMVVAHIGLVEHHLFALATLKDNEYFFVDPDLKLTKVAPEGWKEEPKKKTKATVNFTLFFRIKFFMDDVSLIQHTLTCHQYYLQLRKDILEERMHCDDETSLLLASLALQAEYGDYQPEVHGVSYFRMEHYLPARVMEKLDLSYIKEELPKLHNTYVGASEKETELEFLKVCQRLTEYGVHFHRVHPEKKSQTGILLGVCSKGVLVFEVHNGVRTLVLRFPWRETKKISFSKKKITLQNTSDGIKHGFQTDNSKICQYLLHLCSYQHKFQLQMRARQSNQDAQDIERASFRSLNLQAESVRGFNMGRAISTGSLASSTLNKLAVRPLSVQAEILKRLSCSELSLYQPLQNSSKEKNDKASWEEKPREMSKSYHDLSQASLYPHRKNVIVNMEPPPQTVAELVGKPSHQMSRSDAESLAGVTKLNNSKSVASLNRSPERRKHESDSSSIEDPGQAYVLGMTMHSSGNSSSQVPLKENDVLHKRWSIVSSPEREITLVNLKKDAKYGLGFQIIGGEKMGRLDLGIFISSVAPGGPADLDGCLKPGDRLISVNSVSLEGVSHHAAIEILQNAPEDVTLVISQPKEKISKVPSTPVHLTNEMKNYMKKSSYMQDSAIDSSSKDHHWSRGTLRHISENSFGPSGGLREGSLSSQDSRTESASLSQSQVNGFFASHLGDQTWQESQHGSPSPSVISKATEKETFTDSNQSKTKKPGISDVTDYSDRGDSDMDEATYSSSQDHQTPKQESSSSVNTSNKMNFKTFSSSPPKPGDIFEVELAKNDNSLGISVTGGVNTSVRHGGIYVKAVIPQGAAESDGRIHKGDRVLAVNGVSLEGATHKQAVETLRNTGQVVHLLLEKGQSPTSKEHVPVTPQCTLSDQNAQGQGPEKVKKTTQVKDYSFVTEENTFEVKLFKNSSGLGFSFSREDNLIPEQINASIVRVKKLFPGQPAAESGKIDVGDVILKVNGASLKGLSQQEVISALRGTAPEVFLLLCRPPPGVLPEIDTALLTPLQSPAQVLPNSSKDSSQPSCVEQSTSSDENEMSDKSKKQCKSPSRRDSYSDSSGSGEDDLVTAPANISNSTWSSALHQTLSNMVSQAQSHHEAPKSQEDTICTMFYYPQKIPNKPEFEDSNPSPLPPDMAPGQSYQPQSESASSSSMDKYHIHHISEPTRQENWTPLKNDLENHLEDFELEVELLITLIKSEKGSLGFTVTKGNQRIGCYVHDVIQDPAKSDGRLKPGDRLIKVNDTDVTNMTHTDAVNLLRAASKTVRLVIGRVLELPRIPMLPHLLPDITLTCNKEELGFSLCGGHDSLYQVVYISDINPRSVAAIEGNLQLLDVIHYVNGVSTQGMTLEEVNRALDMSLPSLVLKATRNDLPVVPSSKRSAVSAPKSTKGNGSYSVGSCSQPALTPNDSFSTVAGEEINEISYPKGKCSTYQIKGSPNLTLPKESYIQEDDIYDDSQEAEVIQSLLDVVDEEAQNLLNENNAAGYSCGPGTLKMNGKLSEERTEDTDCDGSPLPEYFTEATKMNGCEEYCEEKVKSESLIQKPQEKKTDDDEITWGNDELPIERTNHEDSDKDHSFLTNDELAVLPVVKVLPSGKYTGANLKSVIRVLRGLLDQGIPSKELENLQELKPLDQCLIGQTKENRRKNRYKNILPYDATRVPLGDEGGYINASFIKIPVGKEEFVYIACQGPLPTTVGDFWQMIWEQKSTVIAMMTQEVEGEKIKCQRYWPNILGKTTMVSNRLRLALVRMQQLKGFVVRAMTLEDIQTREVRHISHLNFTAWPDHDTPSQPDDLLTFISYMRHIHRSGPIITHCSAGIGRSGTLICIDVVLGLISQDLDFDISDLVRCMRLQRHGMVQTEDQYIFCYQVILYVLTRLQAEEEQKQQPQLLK
T2 sequence (Q9NP77 whole entry): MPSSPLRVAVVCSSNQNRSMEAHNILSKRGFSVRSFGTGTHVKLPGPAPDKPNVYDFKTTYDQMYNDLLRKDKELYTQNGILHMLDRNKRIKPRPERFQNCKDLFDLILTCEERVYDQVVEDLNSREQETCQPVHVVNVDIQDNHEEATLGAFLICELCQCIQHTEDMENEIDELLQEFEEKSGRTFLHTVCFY
VHR, sequence (P51452 whole entry): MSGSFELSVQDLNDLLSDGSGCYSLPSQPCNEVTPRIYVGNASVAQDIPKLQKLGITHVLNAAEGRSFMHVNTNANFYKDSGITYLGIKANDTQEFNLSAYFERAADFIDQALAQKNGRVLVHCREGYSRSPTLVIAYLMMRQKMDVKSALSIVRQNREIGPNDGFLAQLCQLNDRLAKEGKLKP
HePTP, sequence (P35236 whole entry): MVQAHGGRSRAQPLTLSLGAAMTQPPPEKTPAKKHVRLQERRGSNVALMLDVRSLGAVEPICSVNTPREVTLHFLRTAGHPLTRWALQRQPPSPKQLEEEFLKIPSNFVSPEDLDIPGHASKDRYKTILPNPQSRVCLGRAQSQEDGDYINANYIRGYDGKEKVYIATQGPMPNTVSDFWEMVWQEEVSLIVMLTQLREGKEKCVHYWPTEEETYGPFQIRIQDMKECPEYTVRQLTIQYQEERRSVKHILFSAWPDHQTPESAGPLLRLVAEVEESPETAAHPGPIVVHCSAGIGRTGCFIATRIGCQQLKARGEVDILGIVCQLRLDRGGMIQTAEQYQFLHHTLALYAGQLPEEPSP
mPTPA, sequence (P9WIA1 whole entry, looked up): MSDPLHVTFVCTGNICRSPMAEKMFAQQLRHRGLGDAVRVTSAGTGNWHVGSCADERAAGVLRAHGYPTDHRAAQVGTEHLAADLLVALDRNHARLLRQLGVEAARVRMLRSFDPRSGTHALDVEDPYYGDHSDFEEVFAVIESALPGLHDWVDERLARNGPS

In the case of `Cc1c(Br)cc(NC(=O)CS(=O)(=O)O)cc1Br`, the “anti-Mtb activity in Mtb-infected macrophages” value in the assay on Mtb-infected macrophages is “markedly decrease bacterial load”. In addition, the “activity in standard MIC assays” value with M. tuberculosis H37Rv is on record as “devoid of activity”.

`O=C(Nc1ccc(N2CCOCC2)cc1)C(c1ccccc1)S(=O)(=O)O` (stereo not drawn) [Compound L319M68] returned an IC50 on PTPH1 greater than 200 µM. At mPTPA, the “mode of mPTPA inhibition” value is “competitive inhibitor”.

Take `O=C(Nc1ccc(-n2ccnc2)cc1)C(c1ccccc1)S(=O)(=O)O` (stereo not drawn) [Compound L319M63]: the concentration for half-maximal inhibition (IC50) at Ssu72 was greater than 100 µM; against PEST, greater than 100 µM; against SHP2 [1] (pNPP at Km, pH 7.0, 25° C.), greater than 100 µM; on PTP1B, greater than 100 µM; against HePTP it was greater than 100 µM; against VHR it was greater than 100 µM. In addition, the IC50 on TcPTP, at FAP1 and at LYP was greater than 100 µM in each case.

`O=C(Nc1nc2ccc(O[N+](=O)[O-])cc2s1)C(c1ccccc1)S(=O)(=O)O` (stereo not drawn) [Compound L319N15-07]: the “inhibition against Laforin at 100 μM” value against Laforin is recorded as “no detectable inhibition”.

For `O=C(Nc1ccccc1)C(=O)Nc1ccc(NC(=O)C(c2ccccc2)S(=O)(=O)O)cc1` (stereo not drawn) [Compound 7, 2-oxo-2-((4-(2-oxo-2-(phenylamino)acetamido)phenyl)amino)-1-phenylethanesulfonic acid], the “inhibitory activity against SHP2 at 50 μM” value against SHP2 [1] (50 μM) was “no inhibition”. Further, the “EGF-mediated ERK1/2 phosphorylation in H1975 cells” value in assay [2] is listed as “no appreciable effect; also recorded: failed to block EGF-mediated ERK1/2 phosphorylation”.

Consider `O=C(O)c1cc2c(C#Cc3cccc(C(F)(F)F)c3)c(-c3ccccc3)oc2cc1O` [Compound L01Z08], for which, in the assay with Mtb-infected macrophages, the “anti-Mtb activity in Mtb-infected macrophages” value was “potent anti-Mtb activity”.

Turning to `O=C(Nc1cnc2ccccc2c1)C(c1ccccc1)S(=O)(=O)O` (stereo not drawn) [Compound L319M88], at PTPH1, the IC50 is greater than 200 µM.

Regarding `O=C(C(c1ccccc1)S(=O)(=O)O)N1CCC(c2ccc(Cl)c(Cl)c2)CC1` (stereo not drawn) [Compound L319N47], on mPTPB, the “increase in potency against mPTPB compared to SPAA” value is on record as 2000 fold.

Regarding `O=C(Nc1ccc2nc(C(F)(F)F)[nH]c2c1)C(c1ccccc1)S(=O)(=O)O` (stereo not drawn) [Compound L319M54], the IC50 at PTPH1 is greater than 200 µM.

On to `O=C(CS(=O)(=O)O)Nc1nc2ccc([N+](=O)[O-])cc2s1` [Compound L335N15-07], for which the “inhibition against Laforin at 100 μM” value against Laforin is on record as “no detectable inhibition”.

Consider `O=C(Nc1nnc(-c2ccccc2)s1)C(c1ccccc1)S(=O)(=O)O` (stereo not drawn) [Compound L319M73-2], for which the “specificity for Laforin over LMPTP” value at Laforin (ratio of IC50) is on record as 8 fold.

In the case of `NC(=O)C(c1ccccc1)S(=O)(=O)O` (stereo not drawn) [SPAA, α-sulfophenylacetic amide, reference compound], the IC50 on mPTPB worked out at 200 µM.

`O=C(CS(=O)(=O)O)Nc1nc2ccccc2s1` [Compound L335N15]: the “Akt phosphorylation (Ser473) in HepG2 cells” value in the assay with LMWPTP is “increased”. Moreover, in the assay on LMWPTP (relative to DMSO), the “IR Tyr1162/1163 phosphorylation in HepG2 cells” value is “enhanced IR Tyr1162/1163 phosphorylation in a dose-dependent fashion”.

On to `C=CS(=O)(=O)c1ccccc1` [phenyl vinyl sulfone], for which, on SHP2 [3], the “covalent adduct formation with SHP2” value is on record as “formed a covalent adduct”.

In turn, `O=C(Nc1nc2ccccc2s1)C(c1ccccc1)S(=O)(=O)O` (stereo not drawn) [Compound L319N15] gave an IC50 on PTPH1 greater than 200 µM.
